Test results as given in PubChem BioAssay (NCI).
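How tested: cells in 96-well plates exposed to compound for 48 hours at five concentrations. GI50 is the concentration that inhibits growth by half. Definition used: TGI = concentration required for complete inhibition of growth.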

Key:
Assay in all cases: growth of human tumour cells (NCI), 48 h
[1] = system: 786-0 renal
[2] = system: OVCAR-3 ovarian
[3] = system: IGROV1 ovarian
[4] = system: SN12C renal
[5] = system: NCI-H460 lung
[6] = system: HOP-62 NSCLC
[7] = system: TK-10 renal
[8] = system: MDA-MB-231 breast
[9] = system: MOLT-4 leukemia
[10] = system: RXF 393 renal
[11] = system: HT29 colon
[12] = system: LOX IMVI melanoma
[13] = system: A498 renal
[14] = system: OVCAR-5 ovarian
[15] = system: MCF7 breast
[16] = system: SF-268 CNS
[17] = system: HS 578T breast
[18] = system: SW-620 colon
[19] = system: UO-31 renal
[20] = system: U251 CNS
[21] = system: CCRF-CEM leukemia
[22] = system: NCI-H23 lung
[23] = system: NCI/ADR-RES ovarian
[24] = system: SK-MEL-5 melanoma
[25] = system: SK-OV-3 ovarian
[26] = system: HCT-15 colon
[27] = system: KM12 colon
[28] = system: OVCAR-8 ovarian
[29] = system: HOP-92 NSCLC
[30] = system: NCI-H522 lung
[31] = system: SNB-19 CNS
[32] = system: UACC-257 melanoma
[33] = system: HCT-116 colon
[34] = system: PC-3 prostate
[35] = system: HL-60(TB) leukemia
[36] = system: SR leukemia
[37] = system: NCI-H226 lung
[38] = system: SK-MEL-28 melanoma
[39] = system: DU-145 prostate
[40] = system: M14 melanoma
[41] = system: EKVX NSCLC
[42] = system: UACC-62 melanoma
[43] = system: COLO 205 colon
[44] = system: K-562 leukemia
[45] = system: CAKI-1 renal
[46] = system: SNB-75 CNS
[47] = system: HCC-2998 colon
[48] = system: ACHN renal
[49] = system: BT-549 breast
[50] = system: SF-539 CNS
[51] = system: OVCAR-4 ovarian
[52] = system: A549 NSCLC
[53] = system: SK-MEL-2 melanoma
[54] = system: SF-295 CNS
[55] = system: T-47D breast

COc1ccc(-c2nc(/C=C3\SC(=NCc4ccccc4)NC3=O)c3ccccn23)cc1
GI50 [1]: 0.189 µM
TGI [1]: 0.498 µM
GI50 [2]: 1.04 µM
TGI [2]: 2.46 µM
GI50 [3]: 1.47 µM
TGI [3]: 4.22 µM
GI50 [4]: 1.68 µM
TGI [4]: 4.63 µM
GI50 [5]: 0.666 µM
TGI [5]: 2.24 µM
GI50 [6]: 1.54 µM
TGI [6]: 3 µM
GI50 [7]: 2.31 µM
TGI [7]: 5.24 µM
GI50 [8]: 1.01 µM
TGI [8]: 3.84 µM
GI50 [9]: 2.72 µM
TGI [9]: > 100 µM
GI50 [10]: 1.18 µM
TGI [10]: 2.97 µM
GI50 [11]: 0.818 µM
TGI [11]: 2.17 µM
GI50 [12]: 0.964 µM
TGI [12]: 2.72 µM
GI50 [13]: 1.51 µM
TGI [13]: 6.56 µM
GI50 [14]: 1.5 µM
TGI [14]: 2.45 µM
GI50 [15]: 1.55 µM
TGI [15]: 3.39 µM
GI50 [16]: 0.377 µM
TGI [16]: 1.57 µM
GI50 [17]: 1.37 µM
TGI [17]: 4.32 µM
GI50 [18]: 1.68 µM
TGI [18]: 3.45 µM
GI50 [19]: 1.49 µM
TGI [19]: 3 µM
GI50 [20]: 1.95 µM
GI50 [21]: 2.83 µM
TGI [21]: > 100 µM
GI50 [22]: 1.37 µM
TGI [22]: 3.51 µM
GI50 [23]: 1.39 µM
TGI [23]: 5.76 µM
GI50 [24]: 1.51 µM
TGI [24]: 3.19 µM
GI50 [25]: 2.05 µM
TGI [25]: 4.28 µM
GI50 [26]: 1.47 µM
TGI [26]: 2.18 µM
GI50 [27]: 0.846 µM
TGI [27]: 2.3 µM
GI50 [28]: 2.04 µM
TGI [28]: 8.13 µM
GI50 [29]: 0.853 µM
TGI [29]: 3.42 µM
GI50 [30]: 0.79 µM
TGI [30]: 7.16 µM
GI50 [31]: 2.71 µM
TGI [31]: 9.68 µM
GI50 [32]: 1.52 µM
TGI [32]: 3.51 µM
GI50 [33]: 0.276 µM
TGI [33]: 1.06 µM
GI50 [34]: 1.28 µM
TGI [34]: 4.35 µM
GI50 [35]: 2.1 µM
TGI [35]: 5.11 µM
GI50 [36]: 2.5 µM
TGI [36]: > 100 µM
GI50 [37]: 2.47 µM
TGI [37]: 10 µM
GI50 [38]: 2 µM
TGI [38]: 4.4 µM
GI50 [39]: 0.685 µM
TGI [39]: 1.81 µM
GI50 [40]: 1.12 µM
TGI [40]: 2.42 µM
GI50 [41]: 2.41 µM
TGI [41]: > 25.5 µM
GI50 [42]: 1.55 µM
TGI [42]: 3.8 µM
GI50 [43]: 2.75 µM
TGI [43]: 7.66 µM
GI50 [44]: 2.76 µM
TGI [44]: > 100 µM
GI50 [45]: 1.76 µM
TGI [45]: 3.55 µM
GI50 [46]: 1.51 µM
TGI [46]: 3.2 µM
GI50 [47]: 1.68 µM
TGI [47]: 4.83 µM
GI50 [48]: 1.34 µM
TGI [48]: 1.94 µM
GI50 [49]: 1.38 µM
TGI [49]: 3.1 µM
GI50 [50]: 1.41 µM
TGI [50]: 1.99 µM
GI50 [51]: 1.39 µM
TGI [51]: 2.84 µM
GI50 [52]: 1.58 µM
TGI [52]: 4.25 µM
GI50 [53]: 2.19 µM
TGI [53]: 7.25 µM
GI50 [54]: 2.25 µM
TGI [54]: 7.62 µM
GI50 [55]: 1.26 µM
TGI [55]: 3.11 µM
